# Assay results reported in US9476050B2, “Combination therapy” (TURUN YLIOPISTO, priority 2011, dated 2016).
# “Also recorded” adds a separate entry of the source. *: point of attachment. Cbz = O=C(OCc1ccccc1)*; CH2F = FC*
# What was measured:
# Format in all cases: cell-based, human
# [1] = system: T98G glioblastoma cells; assay: Apoptosis assay by sub-G0/G1 fraction estimation (apoptotic nuclear fragmentation, PI staining, FACS); conditions: for Potentiation % (apoptotic nuclear fragmentation): T98G transfected with PME-1 specific dsRNA; for level of apoptosis in PME-1 depleted cells: PME-1 siRNA 48 hrs, then drug 24 hrs; for sensitization to STS mediated apoptosis: siRNA or chemical PP2A activator followed by STS 24 hrs; for reversal of PME-1 siRNA and STS mediated apoptosis: agent added to, or siRNA co-transfected with, PME-1 siRNA plus STS
# Procedure: The percentage of the sub-G0/G1 fraction containing fragmented nuclei stained with Propidium iodide (P1) was taken as a measure of apoptotic cells. 3.5-4×10^4 cells were plated in 24-well plates, transfected with siRNA for 48 hrs, and then treated with indicated concentration of test compounds in fresh media. After 24 hrs of treatment, both floating and adherent cells were harvested by centrifugation. Cell pellets were resuspended in 400 μl of hypotonic PI buffer, containing 40 mM Tri-sodium citrate (Merck), 0.3% Triton X-100 (Sigma-Aldrich) and 50 μg/ml Propidium iodide (Sigma-Aldrich) in PBS, and incubated at room temperature for 10 minutes in dark. The flow cytometric analysis of PI stained nuclei was performed and the recorded data was analyzed using a FACScan flow cytometer and software (Becton Dickinson) respectively.
# In experiments using pan-caspase inhibitor, cells were kept in growth media containing 30 μM Z-VAD-FMK starting from 18 hrs after transfection till the PI staining. For treatment with PP2A activators FTY720, Sodium Selenate and Xylulose-5-phosphate, cells were kept in respective drugs throughout the experiment starting from 24 hrs after transfection. PP2A inhibitor, Okadaic acid, treatment was given for 24 hrs after 24 hrs of transfection.
# The T98G cells transfected with siRNA for 48 hrs were given drug treatments for 24 hrs and were subsequently lysed, and their nuclei were stained using hypotonic propidium iodide buffer. The lysates were analysed for changes in the sub-G0/G1 fraction of fragmented nuclei by flow cytometry (FACS) (FIG. 1B). Condensation and fragmentation of nucleus is a key biochemical feature of apoptosis and sub-G0/G1 analysis has been widely used for detection of apoptosis (FEBS Lett., 1986, 194(2):347-50; Cytometry, 1991, 12(4):323-329; Nature Protocols, 2006, 1:1458-1461).
# [2] = system: U87MG glioblastoma cells; assay: Colony formation assay, U87MG; conditions: scrambled or PME-1 siRNA, then drug 2 days; FIG. 5D
# Source text: (§1) Cells plated in very low density (4-6×10^3) in 6-well plates were allowed to grow for about 7 days until they form small colonies. These cells were then transfected with Scrambled or PME-1 siRNA using Lipofectamine RNAiMAX reagent (Invitrogen) according to the manufacturer's instructions. After 48 hrs, treatments were given with indicated concentration of chemical drugs for another 48 hrs. Cell colonies were washed with PBS, fixed with 3.7% formaldehyde and stained with 0.2% crystal violet solution (made in 10% ethanol) for 15 minutes at room temperature each. Excess stain was removed by repeated washings with PBS. Plates were dried and pictures were taken with Olympus SP-600UZ camera or Epson perfection V700 scanner and analysed with ImageJ.
# [3] = system: U251MG glioblastoma cells; assay: Colony formation assay, U251MG; conditions: scrambled or PME-1 siRNA, then drug 2 days; FIG. 5C
# Source text: as §1
# [4] = system: Caspase-3 and -7 activity; assay: Caspase-Glo 3/7 assay in T98G cells; conditions: PME-1 depletion in combination with STS treatment
# Procedure: Caspase-3 and -7 activity was measured by luminescence based method, which utilize a substrate containing Caspase-3 and -7 target peptide DEVD, named Caspase-Glo 3/7 Assay (Promega Corp.). Assays were performed in white polystyrene 96-well plates (Nunc, Thermo Fisher Scientific Inc.) according to manufacturer's instructions and luminescence was measured with Perkin Elmer Victor2 Plate Reader.
# [5] = system: T98G glioblastoma cells; assay: Cell viability assay, CellTiter-glo (CTG); conditions: PME-1 siRNA plus STS treatment
# Procedure: Cell viability was determined by CellTiter-glo (CTG) assay which measures the cellular ATP levels as an indicator of metabolically active and viable cells. CTG reagent kit was purchased from Promega Corp. and assays were performed according to their recommendations. Assays were performed in white polystyrene 96-well plates (Nunc, Thermo Fisher Scientific Inc.) and luminescence was measured with Perkin Elmer Victor2 Plate Reader.
# [6] = system: U118MG glioblastoma cells; assay: Colony formation assay, U118MG
# Source text: as §1
# (§2) The efficacy of this treatment combination was then tested by colony formation assay in T98G glioblastoma cells and another glioblastoma cell line U118MG. For this experiment, these cells were grown in 6-well plates until the formation of small colonies which were then transfected with Scrambled or PME-1 siRNA for 48 hrs followed by treatment with STS at the indicated concentrations for another 48 hrs.
# [7] = system: T98G glioblastoma cells; assay: Colony formation assay, T98G
# Source text: as §1, §2
# [8] = PME-1 depletion or STS treatment alone
# [9] = combination of PME-1 siRNA 48 hrs and STS 48 hrs
molecule,measurement,setting,value
"O=C1NC(=O)c2c1c1c3ccccc3[nH]c1c1[nH]c3ccccc3c21 [Arcyriaflavin A, 12,13-Dihydro-5H-indolo[2,3-a] pyrrolo[3,4-c] carbazole-5,7(6H)-dione]",Potentiation % (apoptotic nuclear fragmentation),[1]; 5 μM drug,5-10%
"C[C@]12O[C@H](C[C@]1(O)CO)n1c3ccccc3c3c4c(c5c6ccccc6n2c5c31)CNC4=O [CEP-701, (9S,10S,12R)-2,3,9,10,11,12-Hexahydro-10-hydroxy-10-(hydroxymethyl)-9-methyl-9,12-epoxy-1H-diindolo[1,2,3-fg:3′,2′,1′-kl] pyrrolo[3,4-i][1, 6]benzodiazocin-1-one]",Potentiation % (apoptotic nuclear fragmentation),[1]; 50 nM drug,2-5%
same,Potentiation % (apoptotic nuclear fragmentation),[1]; 5 μM drug,75-80%
same,level of apoptosis in PME-1 depleted cells,[1]; T98G,levels even higher than STS itself
"Cn1cc(C2=C(c3cn(C4CCN(Cc5ccccn5)CC4)c4ccccc34)C(=O)NC2=O)c2ccccc21 [Enzastaurin, 3-(1-Methyl-1H-indol-3-yl)-4-(1-(1-(2-pyridinylmethyl)-4-piperidinyl)-1H-indol-3-yl)-1H-pyrrole-2,5-dione]",Potentiation % (apoptotic nuclear fragmentation),[1]; 5 μM drug,15-20%
CCCCCCCCc1ccc(CCC(N)(CO)CO)cc1 [FTY720],sensitization to STS mediated apoptosis,[1]; T98G,None of these chemical PP2A activators were able to sensitize
"Cn1c2ccccc2c2c3c(c4c5ccccc5n(CCC#N)c4c21)CNC3=O [GÖ-6976, 12-(2-Cyanoethyl)-6,7,12,13-tetrahydro-13-methyl-5-oxo-5H-indolo[2,3-a]pyrrolo[3,4-c]carbazole]",Potentiation % (apoptotic nuclear fragmentation),[1]; 5 μM drug,15-20%
CC1CNCCN1S(=O)(=O)c1cccc2cnccc12 (stereo not shown) [H7],level of apoptosis in PME-1 depleted cells,[1]; T98G,moderate levels of apoptosis
"COC(=O)[C@@]1(O)C[C@H]2O[C@]1(C)n1c3ccccc3c3c4c(c5c6ccccc6n2c5c31)C(=O)NC4 [K252a, (9S,10R,12R)-2,3,9,10,11,12-Hexahydro-10-hydroxy-9-methyl-1-oxo-9,12-epoxy-1H-diindolo[1,2,3-fg:3′,2′,1′kl] pyrrolo[3,4-i][1,6] benzodiazocine-10-carboxylic acid methyl ester]",cell killing activity with PME-1 depletion (colony formation),[2],enhanced the cell killing activity
same,Potentiation % (apoptotic nuclear fragmentation),[1]; 500 nM drug,10-15%
same,Potentiation % (apoptotic nuclear fragmentation),[1]; 5 μM drug,80-90%
same,level of apoptosis in PME-1 depleted cells,[1]; T98G,levels even higher than STS itself
same,cell killing activity with PME-1 depletion (colony formation),[3],enhanced the cell killing activity
"O=C1NCc2c1c1c3ccccc3[nH]c1c1[nH]c3ccccc3c21 [K252c, 6,7,12,13-Tetrahydro-5H-indolo[2,3-a]pyrrolo[3,4-c] carbazol-5-one]",Potentiation % (apoptotic nuclear fragmentation),[1]; 5 μM drug,15-20%
"C=C1[C@@H](O)[C@@H]2O[C@]3(CC[C@H](/C=C/[C@@H](C)[C@@H]4CC(C)=C[C@@]5(O[C@H](C[C@@](C)(O)C(=O)O)CC[C@H]5O)O4)O3)CC[C@H]2O[C@@H]1[C@@H](O)C[C@H](C)[C@H]1O[C@@]2(CCCCO2)CC[C@H]1C [OA, okadaic acid]",reversal of PME-1 siRNA and STS mediated apoptosis,[1]; T98G,sufficient to rescue cells
"CO[C@@H]1[C@H](N(C)C(=O)c2ccccc2)C[C@H]2O[C@]1(C)n1c3ccccc3c3c4c(c5c6ccccc6n2c5c31)C(=O)NC4 [PKC412, [9S-(9α,10β,11β, 13α)]-N-(2,3,10, 11,12,13-Hexahydro-10-methoxy-9-methyl-1-oxo-9,13-epoxy-1 H,9H-diindolo [1,2,3-gh:3′,2′,1′-lm]pyrrolo[3,4-j][1,7]benzodiazonin-11-yl)-N-methyl benzamide]",cell killing activity with PME-1 depletion (colony formation),[2],enhanced the cell killing activity
same,Potentiation % (apoptotic nuclear fragmentation),[1]; 500 nM drug,5-10%
same,Potentiation % (apoptotic nuclear fragmentation),[1]; 5 μM drug,75-80%
same,level of apoptosis in PME-1 depleted cells,[1]; T98G,levels even higher than STS itself
same,cell killing activity with PME-1 depletion (colony formation),[3],enhanced the cell killing activity
Cn1cc(C2=C(c3cn(CCCSC(=N)N)c4ccccc34)C(=O)NC2=O)c2ccccc21 [RO-31-8220],Potentiation % (apoptotic nuclear fragmentation),[1]; 5 μM drug,5-10%
same,level of apoptosis in PME-1 depleted cells,[1]; T98G,not active
"COC1C(CO)OC(n2c3c(Cl)cccc3c3c4c(c5c6cccc(Cl)c6[nH]c5c32)C(=O)NC4=O)C(O)C1O (stereo not drawn) [Rebeccamycin, 5h-indolo(2,3-a)pyrrolo(3,4-c)carbazole-5,7(6h)-dione,1,11-dichloro-12,13-dihy;dro-12-(4-o-methyl-beta-d-glucopyranosyl)]",Potentiation % (apoptotic nuclear fragmentation),[1]; 5 μM drug,5-10%
"O=C1NC(=O)c2c1c1c3ccccc3n3c1c1c2c2ccccc2n1C1CCC3O1 [SB-218078, 9,10,11,12-Tetrahydro-9,12-epoxy-1H-diindolo [1,2,3-fg:3′,2′,1′-kl] pyrrolo[3,4-i][1,6] benzodiazocine-1,3(2H)-dione]",Potentiation % (apoptotic nuclear fragmentation),[1]; 50 nM drug,2-5%
same,Potentiation % (apoptotic nuclear fragmentation),[1]; 5 μM drug,25-30%
same,level of apoptosis in PME-1 depleted cells,[1]; T98G,moderate levels of apoptosis
"CN[C@@H]1C[C@H]2O[C@@](C)([C@@H]1OC)n1c3ccccc3c3c4c(c5c6ccccc6n2c5c31)C(=O)NC4 [Staurosporine, [9S-(9α,10β,11β, 13α)]-2,3,10,11, 12,13-Hexahydro-10-methoxy-9-methyl-11-(methylamino)-9,13-epoxy-1H,9H-diindolo[1,2,3-gh:3′,2′,1′-lm] pyrrolo[3,4-j][1,7] benzodiazonin-1-one]",cell killing activity with PME-1 depletion (colony formation),[2],enhanced the cell killing activity
same,increase of the activity of Caspase-3/7,[4],above 6 fold
same,Potentiation % (apoptotic nuclear fragmentation),[1]; 50 nM drug,50-60%
same,level of apoptosis in PME-1 depleted cells,[1]; T98G,very high level of apoptosis
same,level of apoptosis in PME-1 depleted cells,"[1]; T98G, listed as STS",dose dependent manner; also recorded: highly sensitive
same,concentration above which STS alone induces cell death,[1]; control (Scrambled siRNA transfected) T98G cells,higher than 50 nM
same,concentration above which STS alone gives limited amount of cell death,[1]; untransfected T98G cells,higher than 30 nM
same,cell viability,[5],drastic decrease
same,colony formation ability,[6]; [8],moderately reduced
same,colony formation ability,[6]; [9],almost complete loss of colonies
same,colony formation ability,[7]; [8],moderately reduced
same,colony formation ability,[7]; [9],almost complete loss of colonies
same,cell killing activity with PME-1 depletion (colony formation),[3],enhanced the cell killing activity
"CN[C@@H]1C[C@H]2O[C@@](C)([C@@H]1OC)n1c3ccccc3c3c4c(c5c6ccccc6n2c5c31)C(=O)N[C@@H]4O [UCN-01, (9S)-2,3,10,11,12,13-Hexahydro-3α-hydroxy-10α-methoxy-9-methyl-11α-methyl amino-9β,13β-epoxy-1H,9H-diindolo [1,2,3-gh:3′,2′,1′-lm] pyrrolo[3,4-j][1,7] benzodiazonin-1-one]",Potentiation % (apoptotic nuclear fragmentation),[1]; 50 nM drug,5-10%
same,Potentiation % (apoptotic nuclear fragmentation),[1]; 5 μM drug,80-90%
same,level of apoptosis in PME-1 depleted cells,[1]; T98G,levels even higher than STS itself
O=C(CO)[C@@H](O)[C@H](O)COP(=O)(O)O [Xylulose-5-phosphate],sensitization to STS mediated apoptosis,[1]; T98G,None of these chemical PP2A activators were able to sensitize
Cbz-Val-Ala-Asp-CH2F,reversal of PME-1 siRNA and STS mediated apoptosis,[1]; T98G,complete reversal
Sodium selenate,sensitization to STS mediated apoptosis,[1]; T98G,None of these chemical PP2A activators were able to sensitize
TRAIL,synergistic effect of PME-1 depletion / benefit of combination with PME-1 siRNA,"[1]; PME-1 siRNA versus scrambled siRNA, T98G",did not show the same trend
